Measured values reported in patent publication US8895544B2, “Indazoles” (Pfizer Limited, priority 2011, dated 2014).

Key:
JAK3 enzyme = JAK3 enzyme (Homo sapiens (Human), UniProt P52333); assay: JAK3 isolated enzyme high ATP Caliper endpoint assay; assay type: biochemical; conditions: 400 μM ATP, read-out: JAK-3 IC50
Protocol: JAK3 Isolated Enzyme High ATP Caliper Endpoint Assay
4 mM stock solutions of test compounds are prepared and serially diluted in 100% DMSO. […] Greiner 384 well plates are prepared containing 400 nl of serially diluted compound, standard and HPE/ZPE. Final top assay concentration is 80 μM as the assay dilution factor is fifty.
JAK3 enzyme stock is diluted to 2 nM in assay buffer (10 mM HEPES free acid pH 7.5, 10 mM HEPES free base pH 7.5, 10 mM MgCL2, 0.0005% Tween-20, 0.01% BSA) containing 2 mM DTT (all supplied by Sigma). ATP is made up at 10 mM stock in sterile water and diluted to 800 μM in assay buffer. Peptide (American peptide company) is made up at 30 mM in 100% DMSO and diluted to 3 μM in assay buffer.
Assays are performed in Greiner polypropylene 384 well plates. Following compound preparation within the plate 10 μl of enzyme in assay buffer containing DTT is added using a Multidrop Micro. Final assay concentration of enzyme is 1 nM. Compound and enzyme are pre-incubated for 60 minutes at room temperature using low evaporation lids before addition of 10 μl ATP/peptide mixture in assay buffer using a Multidrop Micro. […] Plates are foil sealed and incubated for a further 60 minutes at room temperature. Stop solution is added to the plates (20 μl/well) using a Multidrop Micro and plates are loaded onto the Caliper EZReader II. Data is generated by the shift in mobility of non-phosphorylated peptide substrates and phosphorylated products by electrophoresis within a chip and detected via LED induced fluorescence. Data is analysed using LabChip EZReader software which calculates the relative heights of the substrate and product peaks and reports product/product plus substrate peak ratio. Test compound data are subsequently expressed as percentage inhibition defined by HPE and ZPE values for each plate. Percentage inhibition in the presence of test compound is plotted against compound concentration on a log scale to determine an IC50 from the resultant sigmoid curve.

JAK2 = JAK2 (Homo sapiens (Human), UniProt O60674); assay: JAK2 PathHunter assay (prolactin response, U2OS cell line); assay type: cell-based; conditions: PathHunter U2OS cell line expressing JAK2, prolactin challenge; read-out: JAK-2 IC50
Sequence of JAK2 (O60674 whole entry): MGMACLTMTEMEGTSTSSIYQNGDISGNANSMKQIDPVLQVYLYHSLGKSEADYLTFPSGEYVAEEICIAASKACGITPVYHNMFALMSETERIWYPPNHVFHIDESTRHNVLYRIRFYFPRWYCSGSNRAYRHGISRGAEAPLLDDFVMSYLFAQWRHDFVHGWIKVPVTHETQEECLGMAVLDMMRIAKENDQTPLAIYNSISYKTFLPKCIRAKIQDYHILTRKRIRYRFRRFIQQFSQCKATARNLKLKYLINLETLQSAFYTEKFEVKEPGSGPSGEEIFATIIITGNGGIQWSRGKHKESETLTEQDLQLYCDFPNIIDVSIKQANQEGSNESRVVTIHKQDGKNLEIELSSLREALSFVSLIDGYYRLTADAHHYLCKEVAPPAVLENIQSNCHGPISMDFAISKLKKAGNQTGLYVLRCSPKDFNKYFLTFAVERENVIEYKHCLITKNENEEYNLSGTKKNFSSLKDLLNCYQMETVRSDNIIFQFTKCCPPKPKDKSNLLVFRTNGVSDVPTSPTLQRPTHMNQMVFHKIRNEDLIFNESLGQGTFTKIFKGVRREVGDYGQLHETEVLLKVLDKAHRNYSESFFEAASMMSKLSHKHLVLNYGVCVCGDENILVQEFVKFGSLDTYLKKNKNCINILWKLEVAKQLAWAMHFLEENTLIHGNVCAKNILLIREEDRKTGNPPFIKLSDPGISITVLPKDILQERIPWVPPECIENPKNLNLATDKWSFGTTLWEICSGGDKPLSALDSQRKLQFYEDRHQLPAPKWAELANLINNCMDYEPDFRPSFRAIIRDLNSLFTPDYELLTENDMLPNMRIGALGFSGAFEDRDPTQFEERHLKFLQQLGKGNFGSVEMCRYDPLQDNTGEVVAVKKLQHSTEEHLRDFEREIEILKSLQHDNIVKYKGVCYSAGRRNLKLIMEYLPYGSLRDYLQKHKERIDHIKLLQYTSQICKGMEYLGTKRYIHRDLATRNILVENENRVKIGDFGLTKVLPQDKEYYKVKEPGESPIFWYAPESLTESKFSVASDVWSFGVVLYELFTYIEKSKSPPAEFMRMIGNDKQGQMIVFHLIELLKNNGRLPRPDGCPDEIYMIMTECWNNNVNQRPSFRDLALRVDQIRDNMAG
Protocol: JAK1 and JAK2 PathHunter Assay
4 mM stock solutions of test compounds are prepared and serially diluted in 100% DMSO. A standard curve using PF-00956980 at a top concentration of 10 mM is also prepared. High percentage effect (HPE) is defined by 10 mM PF-00956980 and 0% effect (ZPE) is defined by 100% DMSO. Plates containing 1 μl of serially diluted compound, standard and HPE/ZPE are diluted by addition of 65 μl compound diluent (PBS minus Ca^2+, minus Mg^2+ with 0.05% pluronic F127) using a Multidrop Combi. This dilutes test compounds to a top concentration of 60 μM. Final top assay concentration is 10 μM as the assay dilution factor is six. Final DMSO concentration is 0.25%.
Prolactin (Peprotech) is used for the agonist challenge. Prolactin is prepared at 40 μM in compound diluent to generate a stock solution and further diluted to 6 μM in compound diluent. A standard curve is prepared in compound diluent. Prolactin is also diluted to a concentration of 15 nM (2.5 nM fac). Antagonism of the JAK1 or JAK2 prolactin response is measured in the presence of prolactin at an approximate […], concentration for JAK1 and approximately EC100 for JAK2. […]
Assays are performed in Greiner white 384 well plates. […] Luminescence signal is read using an Envision. Test compound data are expressed as percentage inhibition defined by HPE and ZPE values for each plate. […]

[1] = test system: pYSTAT5 in PBMC lymphocytes; assay: Duration of action (DoA) after washout, pYSTAT5 in PBMC lymphocytes; assay type: cell-based, human; conditions: incubated at approximate IC80 for 1 h, then washed
Protocol: 90 μl of PBMC cell suspension was added to each well of a 96 well plate (Corning-Costar 3598) along with 10 μl of test compound dilution giving a final assay concentration range of 0.03 nM to 1 μM in half log increments. The plates were incuated at 37° C., in […] for 1 h before 10 μl rhIL2 (3 μg/ml final assay concentration) was added to appropriate wells and the plates incubated at the stated conditions for a further 15 min. 25 μl of 20% formaldehyde (Tousimis) was added to all wells and the plates left at room temperature for 10 min prior to centrifugation at 400 g for 4 min at room temperature. 200 μl PBS was added to each well and centrifugation repeated as just described. The supernatent was removed and 50 μl of a 1:50 dilution of Mouse anti-human CD3 (BD Biosciences 555329) in 0.1% BSA (Sigma A7906)/PBS added to each well (excluding control wells) and the plates incubated at room temperature in the dark for 30 min. […] Plates were read the next day on a FACS Canto (Becton Dickinson). […]
For determination of compound duration of action (DoA) cells were incubated with compound at an approximate IC80 concentration for 1 h before being washed by cenrifugation and resuspension in assay media without compound. […] DoA was calculated as the time taken for the inhibition to reverse by 50% (T50%)

[2] = test system: IFNγ production in human isolated PBMC; assay: hrIL2/haCD3 stimulated IFNγ production in human isolated PBMC; assay type: cell-based; conditions: IL-2/aCD3 stimulated IFNγ, 18 h
Protocol: Functional Assessment of JAK Inhibitory Potency Using hrIL-2 and haCD3 stimuated IFNγ Production in Human Isolated PBMC.
(§1) Isolation of human Peripheral Blood Mononuclear Cells (PBMC)
Peripheral venous blood from healthy volunteers of either sex was collected into 50 ml centrifuge tubes (Corning) containing 1 ml of 5 mg/ml heparin (Sigma H3400) in distilled water. The heparininsed blood was diluted using an equal volume of sterile Dulbeccos phosphate buffered saline (PBS: Invitrogen 14190) before decanting into 50 ml Leucosep tubes (Sigma A0561). […]
180 μl of PBMC cell suspension was added to each well of a sterile 96 well, flat bottomed plate (Corning-Costar 3598). […] 100 μl supernatent was collected, diluted 1:4 and IFNγ content determined using a commercially available IFNγ ELISA kit (Invitrogen CHC1233) as per the manufacturer's instructions. Absorbances were measured using a Spectramax 190/250 plate reader (Molecular Devices). The IFNγ concentration of test wells was expressed as % of the IFNγ concentration produced in wells exposed to IL-2/aCD3 in the absence of test compound, and IC50 values determined using a 4 parameter curve fit.

[3] = test system: pYSTAT5 in PBMC lymphocytes; assay: hrIL2/haCD3 stimulated pYSTAT5 in PBMC lymphocytes; assay type: cell-based; conditions: rhIL2 stimulated pYSTAT5, human PBMC lymphocytes
Protocol: as §1
Peripheral venous blood from healthy volunteers of either sex was collected into 50 ml centrifuge tubes (Corning) containing 1 ml of 5 mg/ml heparin (Sigma H3400) in distilled water. The heparininsed blood was diluted using an equal volume of sterile Dulbeccos phosphate buffered saline (PBS: Invitrogen 14190) before decanting into 50 ml Leucosep tubes (Sigma A0561). The Leucosep tubes were centrifuged at 400 g for 30 min at room temperature and the buffycoat at the Ficoll:Plamsa interface collected into clean centrifuge tubes and the volum made up to 50 ml using PBS and centrifuging at 200 g for 10 min at room temperature. The supernatent was discarded and the pellet resuspended in assay media (Dulbeccos Modified Essential Medium (DMEM: Invitrogen 11971025) containing 5% Foetal Bovine Serum, 100 U/mIpenicilin/100 μg/ml streptomycin (Sigma P4458) at 2×10^6 lymphocytes per ml for IFNγ experiments and at 1×10^6 lymphocytes per ml for the pYSTAT5 experiments.
hrIL2/haCD3 Stimulated pYSTAT5 in PBMC Lymphocytes
90 μl of PBMC cell suspension was added to each well of a 96 well plate (Corning-Costar 3598) along with 10 μl of test compound dilution giving a final assay concentration range of 0.03 nM to 1 μM in half log increments. […] Plates were read the next day on a FACS Canto (Becton Dickinson). […]

JAK1/3 = JAK1/3 whole cell reporter gene assay (IL-4 stimulated STAT6-beta-lactamase reporter); assay type: cell-based; conditions: Cellsensor STAT6-bla-RA-1 cell line, CD40 ligand and IL-4 stimulated
Protocol: JAK1/3 Whole Cell Reporter Gene Assay
4 mM stock solutions of test compounds are prepared and serially diluted in 100% DMSO. A standard curve using PF-00956980 at a top concentration of 10 mM is also prepared. High percentage effect (HPE) is defined by 10 mM PF-00956980 and 0% effect (ZPE) is defined by 100% DMSO. Plates containing 1 μl of serially diluted compound, standard and HPE/ZPE are diluted by addition of 39 μl assay media (Optimem with 100 uM NEAA, 10 uM sodium pyruvate and 100 U penicillin/100 ug streptomycin (Invitrogen)) using a Multidrop Combi. This dilutes test compounds to a top concentration of 100 μM. Final top assay concentration is 10 μM as the assay dilution factor is ten. Final DMSO concentration is 0.25%.
CD40 (Invitrogen) is prepared at 0.1 mg/ml in PBS minus Ca^2+, minus Mg^2+. The concentration of CD40 required for activation is predetermined by CD40 titration with the cell line. […]
Assays are performed in Greiner 384 well black polypropylene clear bottomed plates. The Invitrogen Cellsensor STATE-bla-RA-1 cell line is thawed, counted and resuspended at 1.88×10^6 cells/ml. […] Beta lactamase fluorescence signal is read at 460 nm (blue) and 530 nm (green) and a ratio calculated using an Envision. Test compound data are expressed as percentage inhibition defined by HPE and ZPE values for each plate. […]

Sequence of JAK3 enzyme (P52333 whole entry): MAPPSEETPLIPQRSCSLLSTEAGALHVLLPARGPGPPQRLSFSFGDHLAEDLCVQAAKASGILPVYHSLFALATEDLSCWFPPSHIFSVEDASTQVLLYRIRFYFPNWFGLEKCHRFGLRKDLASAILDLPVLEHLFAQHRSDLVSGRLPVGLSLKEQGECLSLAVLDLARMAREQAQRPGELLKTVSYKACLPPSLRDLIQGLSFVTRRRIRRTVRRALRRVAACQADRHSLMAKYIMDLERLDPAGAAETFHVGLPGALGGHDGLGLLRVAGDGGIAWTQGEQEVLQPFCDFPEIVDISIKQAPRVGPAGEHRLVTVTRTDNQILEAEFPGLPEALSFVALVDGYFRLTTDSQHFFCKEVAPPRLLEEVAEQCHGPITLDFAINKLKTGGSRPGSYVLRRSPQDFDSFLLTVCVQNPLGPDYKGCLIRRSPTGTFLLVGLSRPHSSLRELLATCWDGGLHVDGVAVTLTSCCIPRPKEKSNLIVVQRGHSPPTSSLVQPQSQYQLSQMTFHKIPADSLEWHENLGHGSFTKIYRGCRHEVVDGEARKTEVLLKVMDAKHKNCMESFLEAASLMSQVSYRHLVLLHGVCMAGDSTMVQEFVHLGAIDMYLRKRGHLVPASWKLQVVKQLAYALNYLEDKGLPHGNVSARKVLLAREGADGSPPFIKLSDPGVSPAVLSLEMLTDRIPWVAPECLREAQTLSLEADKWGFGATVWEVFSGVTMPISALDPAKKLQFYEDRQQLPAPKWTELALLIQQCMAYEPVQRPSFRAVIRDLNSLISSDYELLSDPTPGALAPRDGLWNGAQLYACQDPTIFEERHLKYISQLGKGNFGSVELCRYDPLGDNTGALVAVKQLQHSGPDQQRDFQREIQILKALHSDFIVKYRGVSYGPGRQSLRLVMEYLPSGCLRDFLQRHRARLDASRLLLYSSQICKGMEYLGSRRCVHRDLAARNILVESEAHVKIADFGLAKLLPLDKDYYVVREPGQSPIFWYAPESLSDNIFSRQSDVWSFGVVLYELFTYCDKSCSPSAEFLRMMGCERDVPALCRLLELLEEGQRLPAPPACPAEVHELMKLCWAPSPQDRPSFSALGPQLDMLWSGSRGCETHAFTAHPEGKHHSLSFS

CCc1cc(O)c(F)cc1-c1ccc2c(-c3nc4c([nH]3)CCN(C(=O)c3cnc(N5CCCCC5)cn3)C4)n[nH]c2c1 [Example 4, {2-[6-(2-Ethyl-5-fluoro-4-hydroxy-phenyl)-1H-indazol-3-yl]-1,4,6,7-tetrahydro-imidazo[4,5-c]pyridin-5-yl}-(5-piperidin-1-yl-pyrazin-2-yl)-methanone]
IC50 (JAK3 enzyme): 0.5 nM | IC50 (JAK2): 176 nM | DoA (time taken for the inhibition to reverse by 50%, T50%) [1]: > 8.8 h | IC50 [2]: 70 nM | IC50 [3]: 45 nM | IC50 (JAK1/3): 140 nM
